Where a name gives a salt, the structure may show the parent alone.
Test system: T1, 1N4R p-tau
T1 construct: made in house; host or cells: E. coli (PIMAX system)
Assay: p-tau aggregation modulator screen of 1280-compound library (ThS fluorescence net change over 16 h);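 also: 30 µM compound with 6 µM p-tau over 16 h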
Format: biochemical
Details: not given

Compound	ThS net change
O=C(NCNC(=O)NC1C(=O)NC(=O)N1CO)NC1C(=O)NC(=O)N1CO (stereo not drawn) [Imidurea]	463
O=P1(N(CCCl)CCCl)NCCCO1 (stereo not drawn) [Cyclophosphamide]	440
CC(=O)NCCCS(=O)(=O)O [Acamprosate calcium]	422
CCCCN(CCCC)CCC(O)c1cc2c(Cl)cc(Cl)cc2c2cc(C(F)(F)F)ccc12 (stereo not drawn) [Halofantrine hydrochloride]	555
CCN(CC)C(=O)[C@]1(c2ccccc2)C[C@@H]1CN.Cl [Milnacipran hydrochloride]	415

Same assay, conditions: 1280-compound library screen; ThS fluorescence net change over 16 h

Compound	ThS net change
NC(=O)NC1NC(=O)NC1=O (stereo not drawn) [Allantoin]	390
CC(C)(C)NCC(O)c1ccccc1Cl (stereo not drawn) [Tulobuterol]	398
Cc1onc(-c2ccccc2)c1-c1ccc(S(N)(=O)=O)cc1 [Valdecoxib]	393
CCCC(C(=O)OCCN(CC)CC)(c1ccccc1)c1ccccc1 [Proadifen hydrochloride]	390
c1ccc(CN(CC2=NCCN2)c2ccccc2)cc1 [Antazoline hydrochloride]	399
[H]/N=C(\N/C(=N/[H])Nc1ccc(Cl)cc1)NC(C)C [Proguanil hydrochloride]	389
CCCCOc1ccc(C(=O)CCN2CCCCC2)cc1 [Dyclonine hydrochloride]	406
CC(C)(C)NC[C@H](O)COc1cccc2c1CCCC2=O.Cl [(-) -Levobunolol hydrochloride]	397
CO[C@@]1(NC(=O)C2SC(=C(C(N)=O)C(=O)O)S2)C(=O)N2C(C(=O)O)=C(CSc3nnnn3C)CS[C@@H]21 (stereo partly drawn) [Cefotetan]	392
CCOC(=O)C1=C(C)NC(C)=C(C(=O)OC)C1c1cccc(Cl)c1Cl (stereo not drawn) [Felodipine]	405
CC[C@@H](C(N)=O)N1CCCC1=O [Levetiracetam]	407
C[C@H](CCC(=O)O)[C@H]1CC[C@H]2[C@@H]3[C@H](O)C[C@@H]4C[C@H](O)CC[C@]4(C)[C@H]3CC[C@]12C [Chenodiol]	394
COc1ccc(Cl)cc1C(=O)NCCc1ccc(S(=O)(=O)NC(=O)NC2CCCCC2)cc1 [Glibenclamide]	391
CC(C)[C@H](N)C(=O)OCCOCn1cnc2c(=O)[nH]c(N)nc21 [Valacyclovir hydrochloride]	396
Cn1cc[nH]c1=S [Methimazole]	393
COc1cc(N)c(Cl)cc1C(=O)NC1CCN(Cc2ccccc2)CC1 [Clebopride maleate]	406
COc1cc(C(=O)N2CCOCC2)cc(OC)c1OC [Trimetozine]	404
CCS(=O)(=O)CCn1c([N+](=O)[O-])cnc1C [Tinidazole]	392

Same assay, conditions: 1280-compound library screen; […]

Compound	ThS net change
O.O=C1C(O)=C(O)C(=O)C(O)=C1O [Tetrahydroxy-1,4-quinone hydrate]	391
C#C[C@]1(O)CC[C@H]2[C@@H]3[C@H](C)CC4=C(CCC(=O)C4)[C@H]3CC[C@@]21C [Tibolone]	381
CC(=O)OCC(=O)[C@H]1CC[C@H]2[C@@H]3CC[C@H]4C[C@H](O)CC[C@]4(C)[C@H]3C(=O)C[C@]12C [Alfadolone acetate]	396

Same assay, conditions: library screen, ThS fluorescence net change over 16 h with p-tau

Compound	ThS net change
COC(=O)C1=C(C)NC(C)=C(C(=O)O[C@@H]2CCCN(Cc3ccccc3)C2)[C@@H]1c1cccc([N+](=O)[O-])c1.Cl (racemic) [Benidipine hydrochloride]	259
CO[C@]12C[C@@H](COC(=O)c3cncc(Br)c3)CN(C)[C@@H]1Cc1cn(C)c3cccc2c13 [Nicergoline]	260
CC(C)(C)c1ccc(C(O)CCCN2CCC(C(O)(c3ccccc3)c3ccccc3)CC2)cc1 (stereo not drawn) [Terfenadine]	251
C[C@]12C=CC(=O)C=C1CC[C@H]1[C@@H]3C[C@@H](O)[C@](O)(C(=O)CO)[C@@]3(C)C[C@H](O)[C@@]12F [Triamcinolone]	259
Oc1c(Cl)cc(Cl)c2cccnc12 [Chloroxine]	288
Clc1ccc(C(Cn2ccnc2)OCc2ccsc2Cl)c(Cl)c1 (stereo not drawn) [Tioconazole]	309
CC(CCc1ccc(O)cc1)NCCc1ccc(O)c(O)c1 (stereo not drawn) [Dobutamine hydrochloride]	257

Same assay, conditions: p-tau aggregation modulator screen of 1280-compound library; ThS fluorescence net change

Compound	ThS net change
CC(=O)/N=c1/sc(S(N)(=O)=O)nn1C [Methazolamide]	377
CCCCCCCN(CC)CCCC(O)c1ccc(NS(C)(=O)=O)cc1.CCCCCCCN(CC)CCCC(O)c1ccc(NS(C)(=O)=O)cc1.O=C(O)/C=C/C(=O)O (stereo not drawn) [Ibutilide fumarate]	330
NC(=O)N1c2ccccc2CC(=O)c2ccccc21 [Oxcarbazepine]	376
C[C@]12C=CC(=O)C=C1CC[C@@H]1[C@@H]2[C@@H](O)C[C@@]2(C)[C@H]1CC[C@]2(O)C(=O)CO [Prednisolone]	351
O=C(NCCO[N+](=O)[O-])c1cccnc1 [Nicorandil]	376
Nc1ccc(S(=O)(=O)NC(=O)c2ccccc2)cc1 [Sulfabenzamide]	347
Cl.Cl.c1ccc2c(c1)CCCc1cc(NCCN3CCOCC3)nnc1-2	345
Cc1c(Nc2ncccc2C(=O)O)cccc1C(F)(F)F [Flunixin meglumine]	354
CCC[C@@H]1C[C@@H](C(=O)N[C@@H]([C@H]2O[C@H](SC)[C@H](O)[C@@H](O)[C@H]2O)[C@@H](C)O)N(C)C1 [Lincomycin hydrochloride]	367
CC(=O)O[C@]1(C(C)=O)CC[C@H]2[C@@H]3C=C(C)C4=CC(=O)CC[C@]4(C)[C@H]3CC[C@@]21C [Megestrol acetate]	343
CC(C(=O)O)c1ccc(-c2ccccc2)c(F)c1 (stereo not drawn) [Flurbiprofen]	377
CCN1CCN(c2cc3c(cc2F)c(=O)c(C(=O)O)cn3C2CC2)CC1 [Enrofloxacin]	364
CC(C)NCC(O)COc1ccc(CC(N)=O)cc1 (stereo in doubt) [(S)-(-)-Atenolol]	363
Clc1cc(Cl)c(OCC#CI)cc1Cl [Haloprogin]	374
CC(=O)Oc1cc(C(F)(F)F)ccc1C(=O)O [Triflusal]	343
CCCCN(CCCC)CCCOC(=O)c1ccc(N)cc1 [Butacaine]	367
O=C(O)CCC(=O)c1ccc(-c2ccccc2)cc1 [Fenbufen]	368
C[C@H]1C[C@@H]2[C@H]([C@@H](O)C[C@@]3(C)[C@H]2CC[C@]3(O)C(=O)CO)[C@@]2(C)C=CC(=O)C=C12 [Methylprednisolone, 6-alpha]	340
CCOC(=O)C1=C[C@]2(CC)CCCN3CCc4c(n1c1ccccc41)[C@@H]32 [Vinpocetine]	370
NC(=O)c1cnccn1 [Pyrazinamide]	370

Same assay, conditions: p-tau aggregation modulator screen of 1280-compound library; […]

Compound	ThS net change
C[C@]12CCC(=O)C=C1CC[C@@H]1[C@@H]2C(=O)C[C@]2(C)C(=O)CC[C@@H]12 [Adrenosterone]	334
CCN(C(C)=O)c1cccc(-c2ccnc3c(C#N)cnn23)c1 [Zaleplon]	368
C1CCc2nnnn2CC1 [Pentylenetetrazole]	365
Deoxycorticosterone	346
CC(=O)[C@@]12O[C@](C)(c3ccccc3)O[C@@H]1C[C@H]1[C@@H]3CCC4=CC(=O)CC[C@]4(C)[C@H]3CC[C@@]12C [Algestone acetophenide]	336
CC/C(=C(\c1ccccc1)c1ccc(OCCN(C)C)cc1)c1ccccc1 [Tamoxifen citrate]	336
CC(C)c1ccc2oc3nc(N)c(C(=O)O)cc3c(=O)c2c1 [Amlexanox]	376

Same assay, conditions: p-tau aggregation modulator screen of the compound library, ThS fluorescence net change

Compound	ThS net change
CC(C)n1c(/C=C/C(O)CC(O)CC(=O)O)c(-c2ccc(F)cc2)c2ccccc21 (stereo not drawn) [Fluvastatin sodium salt]	473
CCCCCCNC(=O)n1cc(F)c(=O)[nH]c1=O [Carmofur, 1-hexylcarbamoyl-5-fluorouracil]	1524
CC[C@H](C)C(=O)O[C@H]1CCC=C2C=C[C@H](C)[C@H](CC[C@@H]3C[C@@H](O)CC(=O)O3)[C@H]21 [Mevastatin]	497
COCCCOc1ccnc(C[S+]([O-])c2nc3ccccc3[nH]2)c1C (stereo not drawn) [Rabeprazole Sodium salt]	420
COc1cc(NS(=O)(=O)c2ccc(N)cc2)ncn1 [Sulfamonomethoxine]	419
C[C@@H]1C[C@H]2[C@@H]3C[C@H](F)C4=CC(=O)C=C[C@]4(C)[C@@]3(Cl)[C@@H](O)C[C@]2(C)[C@H]1C(=O)COC(=O)C(C)(C)C [Clocortolone pivalate]	414
C[C@H](CCC(=O)O)[C@H]1CC[C@H]2[C@@H]3CC[C@@H]4C[C@H](O)CC[C@]4(C)[C@H]3CC[C@]12C [Lithocholic acid]	566
CCOc1ccc2nc(S(N)(=O)=O)sc2c1 [Ethoxzolamide]	428
CC1(C)S[C@@H]2[C@H](NC(=O)Cc3ccccc3)C(=O)N2[C@H]1C(=O)O.CC1(C)S[C@@H]2[C@H](NC(=O)Cc3ccccc3)C(=O)N2[C@H]1C(=O)O.c1ccc(CNCCNCc2ccccc2)cc1 [Benzathine benzylpenicillin]	455
O=C1OCCN1/N=C/c1ccc([N+](=O)[O-])o1 [Furazolidone]	415
COc1ccccc1N1CCN(CC(O)COc2cccc3ccccc23)CC1.Cl.Cl (stereo not drawn) [Naftopidil dihydrochloride]	453
O=C(O)c1ccccc1C(=O)Nc1ccc(S(=O)(=O)Nc2nccs2)cc1 [Phthalylsulfathiazole]	425
Cc1ccc(-c2cc(C(F)(F)F)nn2-c2ccc(S(N)(=O)=O)cc2)cc1 [Celecoxib]	429
CCCC1C(=O)N2C(N(C)C)=Nc3ccc(C)cc3N2C1=O (stereo not drawn) [Azapropazone]	429
CCCCCN(CCCCC)C(=O)C(CCC(=O)[O-])NC(=O)c1ccc(Cl)c(Cl)c1.[Na+] (stereo not drawn) [Lorglumide sodium salt]	520

Reference: article PMC7539012, “Hyperphosphorylated tau aggregation and cytotoxicity modulators screen identified prescription drugs linked to Alzheimer's disease and cognitive functions” (Scientific Reports, 2020)
